PMC10459693, “Toward Stability Enhancement of NTS1R-Targeted Radioligands: Structural Interventions on [^99mTc]Tc-DT1” (Pharmaceutics, 2023)
Read-outs that look alike come from different tables or passages of the source. Peptide text beside a SMILES is read from it. * marks the point of attachment. Palmitoyl = CCCCCCCCCCCCCCCC(=O)*; X1 = NCCNCC(CNCCN)C(=O)*

How the values were obtained:
[1] = Biodistribution in SCID mice bearing AsPC-1 xenografts; type: in vivo; conditions: male, mouse, iv, total radioactivity; for tissue uptake at 4 h: 4 h pi; for tissue uptake at 24 h: 24 h pi
Procedure: Twenty male severe combined immunodeficiency (SCID) mice (23.1 ± 1.6 g body weight, six weeks of age on arrival day; NCSR “Demokritos” Animal House, Athens, Greece) were used in the biodistribution experiments. Animals were subcutaneously inoculated in their right flanks with a sterile suspension of freshly harvested AsPC-1 cells (150 μL, 5 × 10^6 cells/animal), and 3–4 weeks later, they developed well-palpable tumors at the implantation sites. During this period, mice were housed in suitable facilities under sterile conditions with 12 h day/night cycles and were provided with sterilized chow food and drinking water ad libitum. At the date of the experiment, animals were randomly divided in groups of four and received through the tail vein a bolus of [^99mTc]Tc-DT9 (100 μL, 3 pmol in vehicle: PBS/EtOH 9/1 v/v with the addition of 0.1% Tween-80) plus vehicle (100 μL; controls at 4 and 24 h pi) or plus Lis (100 μg in 100 μL vehicle); the latter groups had additionally received per os 30 min in advance Entresto® (200 μL, 12 mg; Entresto®+Lis groups at 4 and 24 h pi). A further 4 h group of animals was treated with Entresto®, and 30 min later, mice were co-injected with excess NT and Lis (100 μg NT and 100 μg Lis in 100 μL vehicle—NTS1R block). At the predetermined time intervals, mice were euthanized and weighted, and their blood, organs, and tissue samples of choice as well as the implanted tumors were collected and weighted. Sample radioactivity was measured on the γ-counter together with proper standards of the injected dose. Results were calculated as percentage of injected activity per gram tissue (%IA/g) and provided as mean %IA/g values ± sd. For comparisons, a two-way ANOVA with Tukey’s post hoc analysis was adopted (PRISM^TM 6.0 GraphPad Software, San Diego, CA, USA). p-values < 0.05 were considered statistically significant.

[2] = Radioligand metabolic stability in peripheral mouse blood (radio-HPLC); type: in vivo, mice; conditions: peripheral mouse blood 5 min pi
Procedure: For the assessment of in vivo stability of [^99mTc]Tc-DT7/8/9, healthy Swiss Albino mice (33 animals, >8 weeks of age, body weight: 30 ± 5 g) were obtained from NCSR “Demokritos” Animal House (Athens, Greece). Animals were injected through the tail vein with the radioligand (100 μL, 2 nmol in vehicle: PBS/EtOH 9/1 v/v, with the addition of 0.1% Tween-80 in the case of [^99mTc]Tc-DT9) plus vehicle (100 μL; controls) or plus Lis (100 μg in 100 μL vehicle; Lis). Additional mice groups received per os a suspension of Entresto® (200 μL, 12 mg, 30 min prior to the i.v. injection of the radioligand plus vehicle—Entresto® group; or the i.v. injection of the radioligand plus Lis—Entresto®+Lis group). Animals were euthanized 5 min post injection (pi), and blood samples were drawn from the heart via a prechilled insulin syringe and transferred rapidly into pre-cooled 1.5 mL LoBind Eppendorf tubes containing EDTA (20 μL, 0.1 mM EDTA), and the collected radioactivity was measured in a dose calibrator (CURIEMENTOR 4, PTW Freiburg-GmbH; Freiburg, Germany). The tubes were centrifuged for 10 min at 2000× g at 4 °C in a Hettich Universal 320 R centrifuge (Tuttlingen, Germany). The plasma was collected, diluted in a 1:1 v/v ratio with MeCN, and thoroughly mixed; sample tubes were again centrifuged for 10 min at 15000× g at 4 °C. The supernatant was collected and the volume reduced to 50–100 μL under a gentle flux of N2 and mild heating at 60 °C. […] Sample activity was measured in the dose calibrator, and aliquots were analyzed by radio-HPLC on a Symmetry Shield RP18 cartridge column (5 μm, 3.9 mm × 20 mm; Waters, Eschborn, Germany) eluted at a flow rate of 1 mL/min with the linear gradient (system 2): from 100% A/0% B to 60% A/40% B in 40 min (A: 0.1% aqueous TFA; B: MeCN). […] The tR of intact [^99mTc]Tc-DT7, [^99mTc]Tc-DT8, or [^99mTc]Tc-DT9 was determined by co-injection of blood samples processed as above with an aliquot of the labeling solution. […]

[3] = AsPC-1 tumor, 3 pmol, Controls, read-out: uptake in AsPC-1 Tumor
[4] = AsPC-1 tumor, Entresto+Lis, read-out: uptake in AsPC-1 Tumor
[5] = blood, 3 pmol, Controls, read-out: uptake in Blood
[6] = blood, Entresto+Lis, read-out: uptake in Blood
[7] = heart, 3 pmol, Controls, read-out: uptake in Heart
[8] = heart, Entresto+Lis, read-out: uptake in Heart
[9] = intestines, 3 pmol, Controls, read-out: uptake in Intestines
[10] = intestines, Entresto+Lis, read-out: uptake in Intestines
[11] = kidneys, 3 pmol, Controls, read-out: uptake in Kidneys
[12] = kidneys, Entresto+Lis, read-out: uptake in Kidneys
[13] = liver, 3 pmol, Controls, read-out: uptake in Liver
[14] = liver, Entresto+Lis, read-out: uptake in Liver
[15] = lungs, 3 pmol, Controls, read-out: uptake in Lungs
[16] = lungs, Entresto+Lis, read-out: uptake in Lungs
[17] = muscle, 3 pmol, Controls, read-out: uptake in Muscle
[18] = muscle, Entresto+Lis, read-out: uptake in Muscle
[19] = pancreas, 3 pmol, Controls, read-out: uptake in Pancreas
[20] = pancreas, Entresto+Lis, read-out: uptake in Pancreas
[21] = spleen, 3 pmol, Controls, read-out: uptake in Spleen
[22] = spleen, Entresto+Lis, read-out: uptake in Spleen
[23] = stomach, 3 pmol, Controls, read-out: uptake in Stomach
[24] = stomach, Entresto+Lis, read-out: uptake in Stomach

With `CCCCCCCCCCCCCCCC(=O)NCCCC[C@H](NC(=O)C(CNCCN)CNCCN)C(=O)N[C@@H](CCCNC(=N)N)C(=O)N[C@@H](CCCNC(=N)N)C(=O)N1CCC[C@H]1C(=O)N[C@@H](Cc1ccc(O)cc1)C(=O)N[C@H](C(=O)N[C@@H](CC(C)C)C(=O)O)[C@@H](C)CC` [[^99mTc]Tc-DT9, metal not drawn] (X1-K(Palmitoyl)RRPYIL-OH) the tissue uptake at 4 h [1, 3] was 6.15 ± 0.92 %ID/g, the tissue uptake at 24 h [1, 3] was 3.32 ± 0.35 %ID/g and the tissue uptake at 4 h ([1]; AsPC-1 tumor, Block (Entresto+Lis plus excess NT), read-out: uptake in AsPC-1 Tumor) was 3.68 ± 0.92 %ID/g. It also gave a tissue uptake at 4 h [1, 4] of 5.24 ± 0.27 %ID/g, a tissue uptake at 24 h [1, 4] of 2.84 ± 0.43 %ID/g and a tissue uptake at 4 h [1, 5] of 4.63 ± 0.55 %ID/g. For the same compound, the tissue uptake at 4 h ([1]; blood, 3 pmol, all animal groups, read-out: radioactivity levels in the blood) was over 4 %ID/g, the tissue uptake at 24 h [1, 5] was 0.68 ± 0.18 %ID/g and the tissue uptake at 4 h ([1]; blood, Block (Entresto+Lis plus excess NT), read-out: uptake in Blood) was 4.25 ± 0.37 %ID/g. For the same compound, the tissue uptake at 4 h [1, 6] was 4.32 ± 0.42 %ID/g, the tissue uptake at 24 h [1, 6] was 0.7 ± 0.06 %ID/g and the tissue uptake at 4 h [1, 7] was 3.12 ± 0.43 %ID/g. For the same compound, the tissue uptake at 24 h [1, 7] was 0.64 ± 0.11 %ID/g, the tissue uptake at 4 h ([1]; heart, Block (Entresto+Lis plus excess NT), read-out: uptake in Heart) was 2.79 ± 0.47 %ID/g and the tissue uptake at 4 h [1, 8] was 2.85 ± 2.48 %ID/g. For the same compound, the tissue uptake at 24 h [1, 8] was 0.71 ± 0.06 %ID/g, the tissue uptake at 4 h [1, 9] was 13 ± 4.6 %ID/g and the tissue uptake at 24 h [1, 9] was 4.26 ± 0.61 %ID/g. The tissue uptake at 4 h ([1]; intestines, Block (Entresto+Lis plus excess NT), read-out: uptake in Intestines) was 6.27 ± 0.72 %ID/g, the tissue uptake at 4 h [1, 10] was 7.9 ± 0.88 %ID/g and the tissue uptake at 24 h [1, 10] was 5.37 ± 1.61 %ID/g. The tissue uptake at 4 h [1, 11] was 9.53 ± 1.18 %ID/g, the tissue uptake at 24 h [1, 11] was 3.81 ± 0.54 %ID/g and the tissue uptake at 4 h ([1]; kidneys, Block (Entresto+Lis plus excess NT), read-out: uptake in Kidneys) was 8.56 ± 0.87 %ID/g. It also gave a tissue uptake at 4 h [1, 12] of 9.15 ± 0.62 %ID/g, a tissue uptake at 24 h [1, 12] of 4.63 ± 0.15 %ID/g and a tissue uptake at 4 h [1, 13] of 29.6 ± 3.77 %ID/g. For the same compound, the tissue uptake at 24 h [1, 13] was 12.9 ± 1.66 %ID/g, the tissue uptake at 4 h ([1]; liver, Block (Entresto+Lis plus excess NT), read-out: uptake in Liver) was 30.9 ± 4.25 %ID/g and the tissue uptake at 4 h [1, 14] was 28.4 ± 2.48 %ID/g. It also gave a tissue uptake at 24 h [1, 14] of 17 ± 0.94 %ID/g, a tissue uptake at 4 h [1, 15] of 8.8 ± 1.42 %ID/g and a tissue uptake at 24 h [1, 15] of 3.42 ± 0.67 %ID/g. It also gave a tissue uptake at 4 h ([1]; lungs, Block (Entresto+Lis plus excess NT), read-out: uptake in Lungs) of 8.46 ± 1.26 %ID/g, a tissue uptake at 4 h [1, 16] of 7.61 ± 0.64 %ID/g and a tissue uptake at 24 h [1, 16] of 3.62 ± 0.94 %ID/g. It also gave a tissue uptake at 4 h [1, 17] of 0.93 ± 0.13 %ID/g, a tissue uptake at 24 h [1, 17] of 0.22 ± 0.02 %ID/g and a tissue uptake at 4 h ([1]; muscle, Block (Entresto+Lis plus excess NT), read-out: uptake in Muscle) of 0.82 ± 0.11 %ID/g. For the same compound, the tissue uptake at 4 h [1, 18] was 0.81 ± 0.04 %ID/g, the tissue uptake at 24 h [1, 18] was 0.24 ± 0.01 %ID/g and the tissue uptake at 4 h [1, 19] was 2.1 ± 0.3 %ID/g. For the same compound, the tissue uptake at 24 h [1, 19] was 0.75 ± 0.17 %ID/g, the tissue uptake at 4 h ([1]; pancreas, Block (Entresto+Lis plus excess NT), read-out: uptake in Pancreas) was 1.84 ± 0.41 %ID/g and the tissue uptake at 4 h [1, 20] was 1.85 ± 0.18 %ID/g. The tissue uptake at 24 h [1, 20] was 0.8 ± 0.07 %ID/g, the tissue uptake at 4 h [1, 21] was 6.82 ± 1.11 %ID/g and the tissue uptake at 24 h [1, 21] was 3.42 ± 0.54 %ID/g. The tissue uptake at 4 h ([1]; spleen, Block (Entresto+Lis plus excess NT), read-out: uptake in Spleen) was 6.18 ± 1.37 %ID/g, the tissue uptake at 4 h [1, 22] was 5.47 ± 0.47 %ID/g and the tissue uptake at 24 h [1, 22] was 4.47 ± 0.83 %ID/g. The tissue uptake at 4 h [1, 23] was 3.09 ± 1.06 %ID/g, the tissue uptake at 24 h [1, 23] was 1.73 ± 0.5 %ID/g and the tissue uptake at 4 h ([1]; stomach, Block (Entresto+Lis plus excess NT), read-out: uptake in Stomach) was 2.06 ± 0.47 %ID/g. The tissue uptake at 4 h [1, 24] was 2.27 ± 0.38 %ID/g, the tissue uptake at 24 h [1, 24] was 1.56 ± 0.31 %ID/g and the intact radioligand ([2]; Control) was 98.06 ± 1.18 (n = 3) %. The intact radioligand ([2]; Entresto) was 97.33 ± 1.7 (n = 3) % and the intact radioligand ([2]; Entresto+Lis) was 93.72 ± 3.7 (n = 3) %.
